Publication PMC6934227, “GPR101 mediates the pro-resolving actions of RvD5n-3 DPA in arthritis and infections” (The Journal of Clinical Investigation, 2019)

How the values were obtained:
Assay type in all cases: cell-based
GPR32 (DRV1) [1] = biological target: T1, GPR32 (DRV1) (Homo sapiens, UniProt O75388); assay: PathHunter β-arrestin recruitment in CHO cells (reference agonist)
T1 construct: CHO cells stably expressing human recombinant GPR32 coupled to a β-arrestin reporter system

GPR32 (DRV1) [2] = biological target: T1, GPR32 (DRV1); assay: PathHunter β-arrestin recruitment in CHO cells
GPR101 = biological target: T2, GPR101 (Homo sapiens, UniProt Q96P66); assay: tritiated radioligand saturation binding on GPR101-overexpressing CHO cells (plus homologous competition, IC50 […])
T2 construct: GPR101-overexpressing CHO cells
T2 sequence (Q96P66 1-508): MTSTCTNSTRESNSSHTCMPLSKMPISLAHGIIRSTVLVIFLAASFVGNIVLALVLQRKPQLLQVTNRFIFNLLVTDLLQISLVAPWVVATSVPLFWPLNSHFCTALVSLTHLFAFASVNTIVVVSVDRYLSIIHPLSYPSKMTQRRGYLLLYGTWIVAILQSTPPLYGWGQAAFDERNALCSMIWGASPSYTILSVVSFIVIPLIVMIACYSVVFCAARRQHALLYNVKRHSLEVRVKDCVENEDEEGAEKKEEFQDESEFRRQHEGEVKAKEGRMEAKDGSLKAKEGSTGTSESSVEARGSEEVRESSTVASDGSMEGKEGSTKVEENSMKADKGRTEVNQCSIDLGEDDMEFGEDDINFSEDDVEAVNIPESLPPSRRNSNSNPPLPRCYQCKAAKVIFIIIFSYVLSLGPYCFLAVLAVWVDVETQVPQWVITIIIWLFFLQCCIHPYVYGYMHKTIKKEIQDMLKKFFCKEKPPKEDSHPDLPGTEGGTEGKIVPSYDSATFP
Excerpt: These experiments yielded a calculated KD

T1 sequence (O75388 whole entry): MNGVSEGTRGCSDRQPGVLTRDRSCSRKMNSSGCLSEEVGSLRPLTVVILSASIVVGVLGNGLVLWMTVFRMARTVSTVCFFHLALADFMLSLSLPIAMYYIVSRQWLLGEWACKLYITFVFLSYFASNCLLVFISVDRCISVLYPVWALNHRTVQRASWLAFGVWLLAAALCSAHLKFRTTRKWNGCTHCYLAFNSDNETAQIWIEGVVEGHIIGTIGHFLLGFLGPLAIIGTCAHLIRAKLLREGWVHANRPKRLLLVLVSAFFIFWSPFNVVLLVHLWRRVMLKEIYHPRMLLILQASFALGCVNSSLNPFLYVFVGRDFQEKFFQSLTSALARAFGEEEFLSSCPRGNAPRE

Row | EC50 (GPR32 (DRV1) [1]) | EC50 (GPR32 (DRV1) [2]) | Kd (GPR101) | Compound
1 | ~0.0015 nM |  |  | CC/C=C\C[C@H](O)/C=C/C=C\C=C\C=C\[C@@H](O)[C@@H](O)C/C=C\CCC(=O)O [RvD1, 7S,8R,17S-trihydroxy-4Z,9E,11E,13Z,15E,19Z-docosahexaenoic acid]
2 |  | ~0.014 nM | ~6.9 nM | CC/C=C\C[C@H](O)/C=C/C=C\C/C=C\C=C\[C@@H](O)CCCCCC(=O)O [RvD5n-3 DPA, 7S,17S-dihydroxy-8E,10Z,13Z,15E,19Z-docosapentaenoic acid]
